BindingDB's records for doi:10.1016/j.ejmech.2020.112522 (Xuzhou Medical University, 2020)

Key:
[1] = Inhibition of wild type EGFR in human HT-29 cells assessed as cell growth inhibition measured after 72 hrs by Celltiter-Glo luminescent cell viability assay
[2] = Inhibition of wild type EGFR in human MCF7 cells assessed as cell growth inhibition measured after 72 hrs by Celltiter-Glo luminescent cell viability assay
[3] = Inhibition of wild type EGFR in human A-431 cells assessed as cell growth inhibition measured after 72 hrs by Celltiter-Glo luminescent cell viability assay
[4] = Inhibition of wild type EGFR in human HepG2 cells assessed as cell growth inhibition measured after 72 hrs by Celltiter-Glo luminescent cell viability assay

C=CCSSCCC(=O)OCCCOc1cc2ncnc(Nc3cccc(Br)c3)c2cc1OC
IC50 [1]: > 10 µM
IC50 [2]: 7.31 µM
IC50 [3]: 6.7 µM
IC50 [4]: > 10 µM
